Assay results from the NIST ThermoML archive (doi:10.1016/j.jct.2014.05.019).
Numbers after ± are expanded uncertainties.

Experiment: refractive index (Na D-line) (dimensionless); xn = mol fraction of the nth substance listed
Conditions: 100 kPa, Liquid, Standard Abbe refractometry

NC(CO)C(=O)[O-].[Na+] (stereo not drawn) [sodium DL-serine] + O
refractive index
Conditions | 303.15 K | 308.15 K | 313.15 K | 318.15 K | 323.15 K | 328.15 K | 333.15 K | 338.15 K | 343.15 K
x1 = 0.009 | 1.34216 ± 0.00031 | 1.34144 ± 0.00031 | 1.34066 ± 0.00031 | 1.33982 ± 0.00031 | 1.33894 ± 0.00031 | 1.33802 ± 0.00031 | 1.33706 ± 0.00031 | 1.33608 ± 0.00031 | 1.33505 ± 0.00031
x1 = 0.018 | 1.35202 ± 0.00031 | 1.35122 ± 0.00031 | 1.35038 ± 0.00031 | 1.3495 ± 0.00031 | 1.34861 ± 0.00031 | 1.34767 ± 0.00031 | 1.34667 ± 0.00031 | 1.34565 ± 0.00031 | 1.34458 ± 0.00031
x1 = 0.028 | 1.36168 ± 0.00031 | 1.36085 ± 0.00031 | 1.36 ± 0.00031 | 1.35908 ± 0.00031 | 1.35806 ± 0.00031 | 1.35706 ± 0.00031 | 1.35612 ± 0.00031 | 1.35511 ± 0.00031 | 1.35407 ± 0.00031
x1 = 0.037 | 1.37103 ± 0.00031 | 1.37015 ± 0.00031 | 1.36925 ± 0.00031 | 1.3683 ± 0.00031 | 1.36729 ± 0.00031 | 1.36632 ± 0.00031 | 1.36532 ± 0.00031 | 1.36426 ± 0.00031 | 1.36322 ± 0.00031
x1 = 0.048 | 1.38012 ± 0.00031 | 1.37921 ± 0.00031 | 1.37827 ± 0.00031 | 1.37725 ± 0.00031 | 1.37623 ± 0.00031 | 1.37526 ± 0.00031 | 1.37424 ± 0.00031 | 1.37311 ± 0.00031 | 1.37204 ± 0.00031
x1 = 0.059 | 1.38919 ± 0.00032 | 1.38826 ± 0.00032 | 1.38724 ± 0.00032 | 1.3862 ± 0.00032 | 1.38512 ± 0.00032 | 1.38406 ± 0.00032 | 1.38298 ± 0.00032 | 1.38194 ± 0.00032 | 1.38083 ± 0.00032
